US9321782B2, “Process for preparation of novel 42-O-(heteroalkoxyalkyl) rapamicin compounds with anti-proliferative properties” (MERIL LIFE SCIENCES PVT. LTD., priority 2010, dated 2016)
Where “and” joins values, the source holds several entries; their conditions need not be identical. Identical values can stand only once.

Legend:
[1] = Stability analysis (HPLC purity on storage) without BHT at various temperatures; type: physicochemical; settings: for Purity (%): without BHT
Description: (§1) To check the purity of the 42-O-(heteroalkoxyalkyl) rapamycin compounds the following condition was followed by using High Performance Liquid Chromatography, Phenomenex Synergi Hydro-RP 80a (250×4.6 ) mm, 4 micron column. The mobile phase was 65:15:20 methanol:acetonitile:water mixture. The detector was set at 276 nm and the flow rate was adjusted to 1.5 mL/min. Column temperature was 40° C. 2.0 μg of 42-O-(heteroalkoxyalkyl) rapamycin compounds was injected onto the column in a volume of 5.0 μL methanol with run time of 50 min.
The purity loss was higher at increased temperature, but there was no apparent change in the impurity profile. Table 2A presents the purity of various 42-O-(heteroalkoxyalkyl) rapamycin compounds at different time intervals and temperature conditions.

[2] = tested on: rabbit illiac artery smooth muscle cell cultures (RbIASMCs); experiment: In-vitro anti-proliferative potency, BrdU assay, rabbit smooth muscle cells; type: cell-based; settings: BrdU incorporation, over 5 orders of magnitude concentration, compared with rapamycin
Excerpt: (§2) In-vitro assessment of relative anti-proliferative effect of novel mTOR inhibitors 42-O-(oxetan-3-yl) rapamycin compound and 42-O-(tetrahydrofuran-3-yl) rapamycin compound with rapamycin was done on human and rabbit smooth muscle cell culture models. In which, human aorta and rabbit illiac artery smooth muscle cell cultures were subjected to increasing doses of 42-O-(oxetan-3-yl) rapamycin compound 42-O-(tetrahydrofuran-3-yl) rapamycin compound and rapamycin over 5 orders of magnitude concentration in the cell culture medium. The ability of the cell culture to reproduce was assessed after drug exposure by addition of a BromodeoxyUridine (BrdU) coloured reagent which causes a colour change in the surviving cells. The extent of colour development was quantified at 450 nm wavelength using a spectrophotometer microplate reader (BMG Labtech, FLUOstar OPTIMA). […] On the contrary, lower OD values reflect less incorporation on BrdU and a shift towards cell inhibition. Growth inhibition was calculated by subtracting positive control OD values, which represent 100% uninhibited growth.

[3] = tested on: human aorta smooth muscle cell cultures (hAoSMCs); experiment: In-vitro anti-proliferative potency, BrdU assay, human smooth muscle cells; type: cell-based; settings: BrdU incorporation, over 5 orders of magnitude concentration, compared with rapamycin
Excerpt: as §2

[4] = tested on: L-929 (ATCC cell lines CCL-1, NCTC clone 929) Mus musculus mouse fibroblast cells; experiment: In-vitro cytotoxicity test by extraction method; type: cell-based; settings: extract in contact with L-929 cells for 48 hours
Description: In-vitro assessment was done to check the cytotoxic or necrotic potential of the 42-O-(tetrahydrofuran-3-yl) rapamycin and 42-O-(oxetan-3-yl) rapamycin compounds by extraction method. In this study extracts of test substance were kept in contact with a multiple culture of L-929 (ATCC cell lines CCL-1, NCTC clone 929) Mus musculus mouse fibroblast cells for 48 hours. The cells were examined microscopically to assess the changes for its general morphology, vacuolization, detachment, cell lysis and membrane integrity.

[5] = Stability analysis (HPLC purity on storage) with various concentrations of BHT at 40° C.; type: physicochemical; settings: sealed container
Description: as §1
The inventors have also conducted the stability study of various 42-O-(heteroalkoxyalkyl) rapamycin compounds as mentioned above using various BHT concentrations. The study was conducted at 40° C. temperature in sealed container for 8 weeks.
42-O-(heteroalkoxyalkyl) rapamycin compounds obtained as per procedure described in Example 1 are respectively added with anti-oxidant, namely Butylated Hydroxytoluene (or BHT), at a concentration of 0.1%, 0.2%, 0.5%, and 1.0% (w/w) based on 100% (w/w) of 42-O-(heteroalkoxyalkyl) rapamycin compounds in sealed container to study the stability at 40° C. temperature. […] The purity data with the addition of different amounts of anti-oxidant as added to 42-O-(tetrahydrofuran-3-yl) rapamycin compound, 42-O-(oxetan-3-yl) rapamycin compound and 42-O-(tetrahydropyran-3-yl) rapamycin compound checked at different time intervals are summarized in Table 2B as below mentioned.

[6] = tested on: rabbit blood; experiment: Haemocompatibility test (thrombosis, coagulation, platelet count, leucocyte count); type: cell-based
Description: Haemocompatibility test is conducted to evaluate biological safety of the blood contacting 42-O-([…]) rapamycin and 42-O-(oxetan-3-yl) rapamycin compounds for the medical device. The interaction of test substance with rabbit blood was checked for thrombosis, coagulation, platelet count and leucocyte count.

[7] = tested on: rabbit blood; experiment: In-vitro haemolysis test; type: cell-based; settings: for Haemolytic Index, Mean ± S. D.: mean of three test extracts, rabbit blood, 4 hrs
Description: Haemolysis test was conducted on rabbit blood by in-vitro method to check the haemolytic effect of 42-O-(tetrahydrofuran-3-yl) rapamycin (Merilimus-1) compound and 42-O-(oxetan-3-yl) rapamycin (Merilimus-2) compound. In this study the extracts of the test substances in triplicate were kept in contact with rabbit blood and incubated for 4 hrs. The concentration of plasma haemoglobin liberated in supernatant was calculated by comparing with absorbance of the standard solution in a spectrophotometer at 540 nm.

[8] = test group, individual rabbits No. 1-3

Compound: COC1CC(C[C@H](C)[C@@H]2CC(=O)[C@H](C)/C=C(\C)C(O)[C@@H](OC)C(=O)[C@H](C)C[C@H](C)/C=C/C=C/C=C(\C)[C@@H](OC)C[C@@H]3CC[C@@H](C)[C@@](O)(O3)C(=O)C(=O)N3CCCC[C@H]3C(=O)O2)CCC1OC1COC1 (some centres unmarked) [Merilimus-2, 42-O-(oxetan-3-yl) rapamycin]
- Stability (in words) ([1]; purified compounds without anti-oxidant): more thermally stable
- Purity (%) ([1]; 5° C. (sealed), 00 weeks after synthesis): 97.7%
- Purity (%) ([1]; 5° C. (sealed), 02 weeks after synthesis): 96.5%
- Purity (%) ([1]; 5° C. (sealed), 04 weeks after synthesis): 95.6%
- Purity (%) ([1]; 5° C. (sealed), 08 weeks after synthesis): 94.8%
- Purity (%) ([1]; 5° C. (sealed), 12 weeks after synthesis): 94.2%
- Purity (%) ([1]; 25° C. (sealed), 00 weeks after synthesis): 97.6%
- Purity (%) ([1]; 25° C. (sealed), 02 weeks after synthesis): 96.2%
- Purity (%) ([1]; 25° C. (sealed), 04 weeks after synthesis): 95.1%
- Purity (%) ([1]; 25° C. (sealed), 08 weeks after synthesis): 94.5%
- Purity (%) ([1]; 25° C. (sealed), 12 weeks after synthesis): 93.9%
- Purity (%) ([1]; 25° C. (unsealed), 00 weeks after synthesis): 97.3%
- Purity (%) ([1]; 25° C. (unsealed), 02 weeks after synthesis): 95.9%
- Purity (%) ([1]; 25° C. (unsealed), 04 weeks after synthesis): 94.8%
- Purity (%) ([1]; 25° C. (unsealed), 08 weeks after synthesis): 94.0%
- Purity (%) ([1]; 25° C. (unsealed), 12 weeks after synthesis): 93.6%
- Purity (%) ([1]; 40° C. (sealed), 00 weeks after synthesis): 97.3%
- Purity (%) ([1]; 40° C. (sealed), 02 weeks after synthesis): 95.5%
- Purity (%) ([1]; 40° C. (sealed), 04 weeks after synthesis): 94.6%
- Purity (%) ([1]; 40° C. (sealed), 08 weeks after synthesis): 93.6%
- Purity (%) ([1]; 40° C. (sealed), 12 weeks after synthesis): 92.7%
- Growth suppression of smooth muscle cells (in words) [2]: more effectively inhibited growth of smooth muscle cells than rapamycin
- Growth suppression of smooth muscle cells (in words) [3]: more effectively inhibited growth of smooth muscle cells than rapamycin
- Toxic effect on cells (in words) [4]: did not reveal any toxic effect on cells
- Purity (%) ([5]; BHT 0.0% (w/w), 0 week): 97.3%
- Purity (%) ([5]; BHT 0.0% (w/w), 2 weeks): 95.5%
- Purity (%) ([5]; BHT 0.0% (w/w), 4 weeks): 94.6%
- Purity (%) ([5]; BHT 0.0% (w/w), 8 weeks): 93.6%
- Purity (%) ([5]; BHT 0.1% (w/w), 0 week): 97.7%
- Purity (%) ([5]; BHT 0.1% (w/w), 2 weeks): 97.5%
- Purity (%) ([5]; BHT 0.1% (w/w), 4 weeks): 97.5%
- Purity (%) ([5]; BHT 0.1% (w/w), 8 weeks): 97.5%
- Purity (%) ([5]; BHT 0.2% (w/w), 0 week): 97.6%
- Purity (%) ([5]; BHT 0.2% (w/w), 2 weeks): 97.6%
- Purity (%) ([5]; BHT 0.2% (w/w), 4 weeks): 97.5%
- Purity (%) ([5]; BHT 0.2% (w/w), 8 weeks): 97.5%
- Purity (%) ([5]; BHT 0.5% (w/w), 0 week): 97.6%
- Purity (%) ([5]; BHT 0.5% (w/w), 2 weeks): 97.5%
- Purity (%) ([5]; BHT 0.5% (w/w), 4 weeks): 97.4%
- Purity (%) ([5]; BHT 0.5% (w/w), 8 weeks): 97.4%
- Purity (%) ([5]; BHT 1.0% (w/w), 0 week): 97.6%
- Purity (%) ([5]; BHT 1.0% (w/w), 2 weeks): 97.5%
- Purity (%) ([5]; BHT 1.0% (w/w), 4 weeks): 97.4%
- Purity (%) ([5]; BHT 1.0% (w/w), 8 weeks): 97.4%
- Purity after eight-weeks of storage ([5]; with various concentrations of BHT (concentration not given)): 97.4%
- Haemocompatibility (in words) ([6]; all haematological findings compared to control): haemocompatible
- Coagulation (PTT in sec.) [6, 8]: 36 sec. (2×) and 38 sec.
- Differential leucocyte count: Basophile % [6, 8]: 00%
- Differential leucocyte count: Eosinophil % [6, 8]: 02% (2×) and 01%
- Differential leucocyte count: Lymphocyte % [6, 8]: 44% and 50% and 49%
- Differential leucocyte count: Monocyte % [6, 8]: 01%
- Differential leucocyte count: Neutrophil % [6, 8]: 55% and 48% (2×)
- Distribution of cells: Platelets [6, 8]: Normal
- Distribution of cells: RBC [6, 8]: Normal
- Distribution of cells: WBC [6, 8]: Normal
- Leucocyte count [6, 8]: 7.5 Thousand/cmm (2×) and 6.5 Thousand/cmm
- Platelet count [6, 8]: 4.9 lakhs/cmm and 4.5 lakhs/cmm (2×)
- Thrombosis [6, 8]: Nil
- Haemolytic Index ([7]; individual test extracts 1-3, rabbit blood, incubated 4 hrs, = Haemoglobin released/Haemoglobin present × 100): 1.9 (2×) and 2.0
- Haemolytic Index, Mean ± S. D. [7]: 1.9 ± 0.02
- Haemolytic Index, Mean ± S. D. ([7]; listed as 42-O-(oxetan-3-yl) rapamycin): 1.9
- Haemolytic nature (in words) ([7]; on the basis of haemolytic index): non-haemolytic
